In patent US6982348B2, “Aminoethanol derivatives” (Takeda Pharmaceutical Company Limited, priority 2001, dated 2006):

SMILES | melting point
Cc1ccc(C(=O)NC(Cc2ccc(C(F)(F)F)cc2)C(O)c2ccc(F)cc2)c2ccccc12 (racemic) [Example 2, N-(2-(4-fluorophenyl)-2-hydroxy-1-((4-(trifluoromethyl)phenyl)methyl)ethyl)-4-methyl-1-naphthalenecarboxamide] | 149 to 150 °C
CC(C)(C)C(Cc1ccccc1)C(=O)N[C@H](Cc1ccc(C(F)(F)F)cc1)[C@@H](O)c1ccc(F)cc1 (mixture of isomers) [Example 112, 2-benzyl-N-[(1RS,2SR)-2-(4-fluorophenyl)-2-hydroxy-1-[4-(trifluoromethyl)benzyl]ethyl]-3,3-dimethylbutyramide] | 175 to 176 °C
CCOc1ccc2ccccc2c1C(=O)N[C@H](Cc1ccc(C(F)(F)F)cc1)[C@H](O)c1ccc(F)cc1 (racemic) [Example 25, 2-(ethyloxy)-N-((1RS,2RS)-2-(4-fluorophenyl)-2-hydroxy-1-((4-(trifluoromethyl)phenyl)methyl)ethyl)-1-naphthalenecarboxamide] | 186 to 187 °C
CC1=Cc2c(cccc2C(=O)N[C@H](Cc2cccc(OC(F)(F)C(F)F)c2)[C@@H](O)c2ccc(F)cc2)CCC1 (racemic) [Example 127, N-[(1RS,2SR)-2-(4-fluorophenyl)-2-hydroxy-1-[3-(1,1,2,2-tetrafluoroethoxy)benzyl]ethyl]-8-methyl-6,7-dihydro-5H-benzo[a]cycloheptene-1-carboxamide] | 149 to 150 °C
O=C(N[C@H](Cc1ccc(C(F)(F)F)cc1)[C@@H](O)c1ccc(F)cc1)c1csc2ccccc12 (racemic) [Example 46, N-[(1RS,2SR)-2-(4-fluorophenyl)-2-hydroxy-1-[4-(trifluoromethyl)benzyl]ethyl]-1-benzothiophene-3-carboxamide] | 188 to 189 °C
O=C(N[C@H](Cc1ccc(C(F)(F)F)cc1)[C@@H](O)c1cccc(F)c1)c1ccc(F)c2ccccc12 (racemic) [Example 176, 4-fluoro-N-((1RS,2SR)-2-(3-fluorophenyl)-2-hydroxy-1-((4-(trifluoromethyl)phenyl)methyl)ethyl)-1-naphthalenecarboxamide] | 200 to 201 °C
O=C(N[C@H](Cc1ccc(C(F)(F)F)cc1)[C@@H](O)c1ccc(F)cc1)c1ccc([N+](=O)[O-])c2c1CCCC2 (racemic) [Example 38, N-[(1RS,2SR)-2-(4-fluorophenyl)-2-hydroxy-1-[4-(trifluoromethyl)benzyl]ethyl]-4-nitro-5,6,7,8-tetrahydronaphthalene-1-carboxamide] | 207 to 209 °C
O=C(NC(Cc1ccc(C(F)(F)F)cc1)C(O)c1ccc(F)cc1)c1cccc2ccccc12 (racemic) [Example 1, N-[2-(4-fluorophenyl)-2-hydroxy-1-[[4-(trifluoromethyl)phenyl]methyl]ethyl]-1-naphthalenecarboxamide] | 159 to 181 °C
O=C(N[C@H](Cc1ccc(C(F)(F)F)cc1)[C@@H](O)c1ccc(F)cc1)c1ccc(Oc2ccc(Cl)cc2)cc1 (racemic) [Example 90, 4-(4-chlorophenoxy)-N-[(1RS,2SR)-2-(4-fluorophenyl)-2-hydroxy-1-[4-(trifluoromethyl)benzyl]ethyl]benzenecarboxamide] | 188 to 189 °C
O=C(N[C@H](Cc1ccc(C(F)(F)F)cc1)[C@@H](O)c1ccc(F)cc1)c1ccc(/C=C\c2ccc(Cl)cc2)cc1 (racemic) [Example 89, 4-[(Z)-2-(4-chlorophenyl)ethenyl]-N-[(1RS,2SR)-2-(4-fluorophenyl)-2-hydroxy-1-[4-(trifluoromethyl)benzyl]ethyl]benzenecarboxamide] | 193 to 194 °C
O=C(N[C@H](Cc1ccc(C(F)(F)F)cc1)[C@@H](O)c1ccc(F)cc1)c1ccc(CO)c2ccccc12 (racemic) [Example 105, N-((1RS,2SR)-2-(4-fluorophenyl)-2-hydroxy-1-((4-(trifluoromethyl)phenyl)methyl)ethyl)-4-(hydroxymethyl)-1-naphthalenecarboxamide] | 202 to 203 °C
O=C(N[C@H](Cc1ccc(C(F)(F)F)cc1)[C@@H](O)c1ccc(F)cc1)c1cccc2c(F)cccc12 (racemic) [Example 32, 5-fluoro-N-[(1RS,2SR)-2-(4-fluorophenyl)-2-hydroxy-1-[4-(trifluoromethyl)benzyl]ethyl]naphthalene-1-carboxamide] | 222 to 224 °C
O=C(NC(Cc1ccc(C(F)(F)F)cc1)C(O)c1ccc(F)cc1)c1ccccc1F (racemic) [Example 18, 2-fluoro-N-[2-(4-fluorophenyl)-2-hydroxy-1-[[4-(trifluoromethyl)phenyl]methyl]ethyl]benzamide] | 115 to 117 °C
O=C(N[C@H](Cc1ccccc1C(F)(F)F)[C@@H](O)c1ccc(F)cc1)C1CCCCC1 (racemic) [Example 142, N-((1RS,2SR)-2-(4-fluorophenyl)-2-hydroxy-1-((2-(trifluoromethyl)phenyl)methyl)ethyl)cyclohexanecarboxamide] | 216 to 217 °C
CC(C)(C)Oc1ccc(C[C@@H](NC(=O)c2cccc3c(Cl)cccc23)[C@@H](O)c2cccc(Cl)c2)cc1 (racemic) [Example 278, N-[(1RS,2SR)-1-(4-tert-butoxybenzyl)-2-(3-chlorophenyl)-2-hydroxyethyl]-5-chloro-1-naphthamide] | 132 to 133 °C
CC(F)(F)c1ccc(C[C@@H](NC(=O)c2ccc(F)c3ccccc23)[C@@H](O)c2ccc(F)cc2)cc1 (racemic) [Example 166, N-[(1RS,2SR)-1-[4-(1,1-difluoroethyl)benzyl]-2-(4-fluorophenyl)-2-hydroxyethyl]-4-fluoronaphthalene-1-carboxamide] | 220 to 221 °C

Next, values leading:

melting point | SMILES
152 to 154 °C | O=C(N[C@H](Cc1cccc(OC(F)(F)C(F)F)c1)[C@@H](O)c1ccc(-c2ccccc2CO)cc1)c1cccc2c1C=CCCC2 (racemic) [Example 302, N-[(1RS,2SR)-2-[2′-(hydroxymethyl)[1,1′-biphenyl]-4-yl]-2-hydroxy-1-[3-(1,1,2,2-tetrafluoroethoxy)benzyl]ethyl]-6,7-dihydro-5H-benzo[a]cycloheptene-1-carboxamide]
170 to 171 °C | O=C(N[C@H](Cc1cccc(OC(F)(F)C(F)F)c1)[C@@H](O)c1ccnc(F)c1)c1ccc(F)c2ccccc12 (racemic) [Example 265, 4-fluoro-N-{(1RS,2SR)-2-(2-fluoropyridin-4-yl)-2-hydroxy-1-[3-(1,1,2,2-tetrafluoroethoxy)benzyl]ethyl}-1-naphthamide]
194 to 195 °C | O=C(N[C@H](Cc1ccc(C(F)(F)F)cc1)[C@@H](O)c1ccc(F)cc1F)c1ccc(F)c2ccccc12 (racemic) [Example 181, N-((1RS,2SR)-2-(2,4-difluorophenyl)-2-hydroxy-1-((4-(trifluoromethyl)phenyl)methyl)ethyl)-4-fluoro-1-naphthalenecarboxamide]
156 to 157 °C | O=C(N[C@H](Cc1ccc(C(F)(F)F)cc1)[C@@H](O)c1cccc2ccccc12)C1CCCCC1 (racemic) [Example 190, N-((1RS,2SR)-2-hydroxy-2-(1-naphthalenyl)-1-((4-(trifluoromethyl)phenyl)methyl)ethyl)cyclohexanecarboxamide]
175 to 176 °C | O=C(N[C@H](Cc1cccc(OC(F)(F)C(F)F)c1)[C@@H](O)c1cccc(F)c1)c1ccc(F)c2ccccc12 (racemic) [Example 263, 4-fluoro-N-{(1RS,2SR)-2-(3-fluorophenyl)-2-hydroxy-1-[3-(1,1,2,2-tetrafluoroethoxy)benzyl]ethyl}-1-naphthamide]
176 to 177 °C | O=C(N[C@H](Cc1cccc(OC(F)(F)C(F)F)c1)[C@@H](O)c1ccc(Oc2ccccn2)cc1)c1ccc(F)c2ccccc12 (racemic) [Example 259, 4-fluoro-N-{(1RS,2SR)-2-hydroxy-2-[4-(pyridin-2-yloxy)phenyl]-1-[3-(1,1,2,2-tetrafluoroethoxy)benzyl]ethyl}-1-naphthamide]
156 to 157 °C | O=C(N[C@H](Cc1cccc(S(=O)(=O)C(F)(F)F)c1)[C@@H](O)c1ccc(F)cc1)c1cccc2c1C=CCCC2 (racemic) [Example 280, N-((1RS,2SR)-2-(4-fluorophenyl)-2-hydroxy-1-{3-[(trifluoromethyl)sulfonyl]benzyl}ethyl)-6,7-dihydro-5H-benzo[a][7]annulene-1-carboxamide]
134 to 135 °C | O=C(CCc1ccccc1)N[C@H](Cc1ccc(C(F)(F)F)cc1)[C@@H](O)c1cccc(Oc2ccccc2)c1 (racemic) [Example 208, N-((1RS,2SR)-2-hydroxy-2-(3-phenoxyphenyl)-1-((4-(trifluoromethyl)phenyl)methyl)ethyl)-3-phenylpropanamide]
148 to 149 °C | CC(C)(C)c1ccc(C[C@@H](NC(=O)c2cccc3c(F)cccc23)[C@@H](O)c2ccc(F)cc2)cc1 (racemic) [Example 364, N-[(1RS,2SR)-1-(4-tert-butylbenzyl)-2-(4-fluorophenyl)-2-hydroxyethyl]-5-fluoro-1-naphthamide]
91 to 93 °C | CC(C)(C)c1cccc(C[C@@H](NC(=O)c2cccc3c(Cl)cccc23)[C@@H](O)c2cccc(Cl)c2)c1 (racemic) [Example 371, N-[(1RS,2SR)-1-[3-(tert-butyl)benzyl]-2-(3-chlorophenyl)-2-hydroxyethyl]-5-chloro-1-naphthamide]
142 to 143 °C | O=C(N[C@H](Cc1cccc(OC(F)(F)C(F)F)c1)[C@@H](O)c1ccc(OCCCOc2ccccc2)cc1)c1cccc2c1C=CCCC2 (racemic) [Example 247, N-{(1RS,2SR)-2-hydroxy-2-[4-(3-phenoxypropoxy)phenyl]-1-[3-(1,1,2,2-tetrafluoroethoxy)benzyl]ethyl}-6,7-dihydro-5H-benzo[a][7]annulene-1-carboxamide]
115 to 116 °C | O=C(N[C@H](Cc1cccc(OC(F)(F)C(F)F)c1)[C@@H](O)c1ccc(OCc2ccccc2)cc1)c1cccc2c1C=CCCC2 (racemic) [Example 236, N-{(1RS,2SR)-2-[4-(benzyloxy)phenyl]-2-hydroxy-1-[3-(1,1,2,2-tetrafluoroethoxy)benzyl]ethyl}-6,7-dihydro-5H-benzo[a][7]annulene-1-carboxamide]
